Data reported in ChEMBL document CHEMBL5042543, “Bridged Piperidine Analogues of a High Affinity Naphthalene-Based P2Y14R Antagonist” (J Med Chem, 2022).
Values after ≈ are worked out from the molar mass of the structure shown. Active and inactive are the calls of the source. The rule behind the calls is not given here.

Experiments:
[1] = target: Kappa-type opioid receptor (Homo sapiens, UniProt P41145); test: Inhibition of KOR (unknown origin) assessed as binding constant
[2] = Distribution coefficient, logD of compound at pH 7.4 by HPLC analysis; assay type: physicochemical; settings: octanol/water
[3] = target: Sigma intracellular receptor 2 (Homo sapiens, UniProt Q5BJF2); test: Inhibition of sigma 2 receptor (unknown origin) assessed as binding constant
[4] = Stability in mouse liver microsomes assessed as half life; assay type: ADME, Microsome
[5] = Plasma protein binding in rat assessed as bound fraction; assay type: ADME, cell-free
[6] = Stability in mouse plasma assessed as compound remaining after 120 mins; assay type: ADME, cell-free; settings: 2 h
[7] = Toxicity in Hsd:ICR (CD-1) mouse at 10 micromol/kg, ip; settings: in vivo, dose 10 µmol/kg
[8] = Aqueous solubility of the compound at pH 4; settings: buffer
[9] = Plasma protein binding in human assessed as bound fraction; assay type: ADME, cell-free
[10] = Half life in Wistar rat at 0.5 mg/kg, iv; assay type: ADME, organism-based; settings: in vivo
[11] = Stability in human liver microsomes assessed as half life; assay type: ADME, Microsome
[12] = Stability of the compound in simulated gastric fluid assessed as parent compound remaining at 120 mins by NMR analysis; assay type: ADME; settings: simulated gi fluid, 2 h
[13] = Stability of the compound in simulated intestinal fluid assessed as parent compound remaining at 120 mins; assay type: ADME; settings: simulated gi fluid, 2 h
[14] = Half life in Wistar rat at 1 mg/kg, ip; assay type: ADME, organism-based; settings: in vivo
[15] = Stability in rat liver microsomes assessed as half life; assay type: ADME, Microsome
[16] = Plasma protein binding in mouse assessed as bound fraction; assay type: ADME, cell-free
[17] = test system: HepG2; test: Cytotoxicity against human HepG2 cells; assay type: toxicity, cell-based
[18] = Stability in rat plasma assessed as compound remaining after 120 mins; assay type: ADME, cell-free; settings: 2 h
[19] = target: Sigma non-opioid intracellular receptor 1 (Homo sapiens, UniProt Q99720); test: Inhibition of sigma 1 receptor (unknown origin) assessed as binding constant
[20] = target: T1, liver carboxylesterase (Sus scrofa, UniProt Q29550); test: Stability of the compound in aqueous medium at pH 7.4 assessed as half life in presence of porcine liver esterase; assay type: physicochemical; settings: pig
T1 sequence (Q29550 whole entry): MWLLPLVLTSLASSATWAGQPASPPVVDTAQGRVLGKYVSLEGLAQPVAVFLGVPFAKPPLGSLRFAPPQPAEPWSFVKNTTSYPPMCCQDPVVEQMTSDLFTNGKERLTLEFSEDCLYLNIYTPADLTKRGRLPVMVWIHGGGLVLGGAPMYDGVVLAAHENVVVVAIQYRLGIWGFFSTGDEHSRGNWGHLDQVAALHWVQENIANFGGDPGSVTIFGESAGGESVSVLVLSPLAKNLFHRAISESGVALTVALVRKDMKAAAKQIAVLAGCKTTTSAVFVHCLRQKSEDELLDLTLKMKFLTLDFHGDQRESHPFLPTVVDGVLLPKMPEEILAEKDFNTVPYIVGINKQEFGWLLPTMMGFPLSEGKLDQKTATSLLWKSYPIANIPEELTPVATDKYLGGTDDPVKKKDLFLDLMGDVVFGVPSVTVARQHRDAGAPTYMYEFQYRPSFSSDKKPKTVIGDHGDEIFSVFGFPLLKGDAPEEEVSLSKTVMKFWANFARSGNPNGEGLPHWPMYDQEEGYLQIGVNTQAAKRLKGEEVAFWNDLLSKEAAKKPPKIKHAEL

[21] = Plasma protein binding in mouse assessed as compound remaining at 5 hrs; assay type: ADME, cell-free
[22] = Plasma protein binding in rat assessed as compound remaining at 5 hrs; assay type: ADME, cell-free
[23] = target: Beta-3 adrenergic receptor (Homo sapiens, UniProt P13945); test: Inhibition of adrenergic beta 3 receptor (unknown origin) assessed as binding constant
[24] = target: T2, P2Y purinoceptor 14 (Mus musculus, UniProt Q9ESG6); test: Inhibition of fluorescent antagonist binding to mouse P2Y14R expressed in HEK293 cells preincubated for 30 mins followed by addition of 6-amino-9-(2-carboxy-4-((6-(4-(4-(4-(4-(3-carboxy-6-(4-(trifluoromethyl)phenyl)naphthalen-1-yl)phenyl)piperidin-1-yl)butyl)-1H-1,2,3-triazol-1-yl)hexyl)carbamoyl)phenyl)-3-iminio-5-sulfo-3H-xanthene-4-sulfonate incubated for 30 mins by BD FACSCalibur flow …; assay type: cell-based
T2 sequence (Q9ESG6 whole entry): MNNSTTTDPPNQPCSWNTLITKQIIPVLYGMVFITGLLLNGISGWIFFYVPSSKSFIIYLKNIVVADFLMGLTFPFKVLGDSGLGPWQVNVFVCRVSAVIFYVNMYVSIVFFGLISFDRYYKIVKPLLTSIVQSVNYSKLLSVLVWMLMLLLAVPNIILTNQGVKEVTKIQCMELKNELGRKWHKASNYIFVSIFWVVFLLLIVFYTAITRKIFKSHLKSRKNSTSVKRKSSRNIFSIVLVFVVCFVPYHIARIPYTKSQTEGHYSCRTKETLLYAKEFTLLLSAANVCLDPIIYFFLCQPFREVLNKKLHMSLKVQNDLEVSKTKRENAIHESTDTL

[25] = target: D(1B) dopamine receptor (Homo sapiens, UniProt P21918); test: Inhibition of dopamine D5 receptor (unknown origin) assessed as binding constant
[26] = target: Translocator protein (Homo sapiens, UniProt P30536); test: Inhibition of TSPO receptor (unknown origin) assessed as binding constant
[27] = target: D(3) dopamine receptor (Homo sapiens, UniProt P35462); test: Inhibition of dopamine D3 receptor (unknown origin) assessed as binding constant
[28] = test system: Mus musculus; test: Reversal of CCI-induced mechano-allodynia in Hsd:ICR (CD-1) mouse model of neuropathic pain at 10 micromol/kg, ip measured after 3 hrs; assay type: functional, organism-based; settings: dose 10.0 µmol/kg
[29] = test system: Mus musculus; test: Reversal of CCI-induced mechano-allodynia in Hsd:ICR (CD-1) mouse model of neuropathic pain at 10 micromol/kg, ip measured after 5 hrs; assay type: functional, organism-based; settings: dose 10.0 µmol/kg
[30] = test system: Mus musculus; test: Antiinflammatory activity in C57BL/6J mouse model of ovalbumin/Aspergillus-induced allergic asthma assessed as reduction in macrophage counts in BALF at 10 mg/kg, ip administered 30 mins prior to allergen challenge and measured after 16 days; assay type: functional, organism-based; settings: time 16.0 day
[31] = test system: Mus musculus; test: Antiinflammatory activity in C57BL/6J mouse model of ovalbumin/Aspergillus-induced allergic asthma assessed as reduction in eosinophil counts in BALF at 10 mg/kg, ip administered 30 mins prior to allergen challenge and measured after 16 days; assay type: functional, organism-based; settings: time 16.0 day
[32] = test system: Mus musculus; test: Antiinflammatory activity in C57BL/6J mouse model of ovalbumin/Aspergillus-induced allergic asthma assessed as reduction in allergic inflammation at 10 mg/kg, ip administered 30 mins prior to allergen challenge and measured after 16 days; assay type: functional, organism-based; settings: time 16.0 day
[33] = test system: Mus musculus; test: Antiinflammatory activity in C57BL/6J mouse model of ovalbumin/Aspergillus-induced allergic asthma assessed as reduction in neutrophil counts in BALF at 10 mg/kg, ip administered 30 mins prior to allergen challenge and measured after 16 days; assay type: functional, organism-based; settings: time 16.0 day
[34] = target: T3, Muscarinic acetylcholine receptor M1 (Homo sapiens, UniProt P11229); test: Inhibition of muscarinic M1 receptor (unknown origin) assessed as binding constant
T3 sequence (P11229 whole entry): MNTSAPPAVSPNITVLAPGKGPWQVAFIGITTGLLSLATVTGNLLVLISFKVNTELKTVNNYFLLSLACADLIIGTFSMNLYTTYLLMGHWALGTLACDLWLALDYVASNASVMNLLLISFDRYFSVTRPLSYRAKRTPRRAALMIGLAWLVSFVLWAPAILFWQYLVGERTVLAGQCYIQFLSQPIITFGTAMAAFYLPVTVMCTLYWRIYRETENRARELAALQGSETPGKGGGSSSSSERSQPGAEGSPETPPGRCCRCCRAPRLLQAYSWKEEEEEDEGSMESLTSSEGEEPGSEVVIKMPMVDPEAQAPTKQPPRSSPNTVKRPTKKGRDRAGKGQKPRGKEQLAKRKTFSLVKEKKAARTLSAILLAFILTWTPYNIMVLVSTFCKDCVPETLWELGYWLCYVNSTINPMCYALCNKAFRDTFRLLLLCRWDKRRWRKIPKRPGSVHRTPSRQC

[35] = target: Sodium-dependent serotonin transporter (Homo sapiens, UniProt P31645); test: Inhibition of SERT receptor (unknown origin) assessed as binding constant
[36] = Prodrug conversion in aqueous medium at pH 7.4 assessed as conversion of 4-(4-((1S,4S,5S)-2-(Ethoxycarbonyl)-2-azabicyclo[2.2.1]heptan-5-yl)phenyl)-7-(4-(trifluoro-methyl)phenyl)-2-naphthoic acid at 72 hrs by HPLC analysis; assay type: ADME; settings: buffer, pH 7.4, 72 h
[37] = test system: Mus musculus; test: Antiinflammatory activity in C57BL/6J mouse model of ovalbumin/Aspergillus-induced allergic asthma assessed as reduction in recruitment of immune cells into lungs at 10 mg/kg, ip administered 30 mins prior to allergen challenge and measured after 16 days; assay type: functional, organism-based; settings: time 16.0 day
[38] = test system: Mus musculus; test: Antiinflammatory activity in C57BL/6J mouse model of ovalbumin/Aspergillus-induced allergic asthma assessed as reduction in recruitment of eosinophils into airway at 10 mg/kg, ip administered 30 mins prior to allergen challenge and measured after 16 days; assay type: functional, organism-based; settings: time 16.0 day
[39] = test system: Mus musculus; test: Antiinflammatory activity in C57BL/6J mouse model of ovalbumin/Aspergillus-induced allergic asthma assessed as reduction in recruitment of neutrophils into airway at 10 mg/kg, ip administered 30 mins prior to allergen challenge and measured after 16 days; assay type: functional, organism-based; settings: time 16.0 day
[40] = test system: Mus musculus; test: Antiinflammatory activity in C57BL/6J mouse model of ovalbumin/Aspergillus-induced allergic asthma assessed as reduction in recruitment of lymphocytes into airway at 10 mg/kg, ip administered 30 mins prior to allergen challenge and measured after 16 days; assay type: functional, organism-based; settings: time 16.0 day

Sigma intracellular receptor 2, sequence (Q5BJF2 whole entry): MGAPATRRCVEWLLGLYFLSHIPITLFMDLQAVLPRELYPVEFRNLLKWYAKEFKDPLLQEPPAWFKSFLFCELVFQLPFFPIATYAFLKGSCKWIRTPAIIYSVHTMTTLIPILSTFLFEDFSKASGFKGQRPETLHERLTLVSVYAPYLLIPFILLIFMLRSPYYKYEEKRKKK
Sigma non-opioid intracellular receptor 1, sequence (Q99720 whole entry): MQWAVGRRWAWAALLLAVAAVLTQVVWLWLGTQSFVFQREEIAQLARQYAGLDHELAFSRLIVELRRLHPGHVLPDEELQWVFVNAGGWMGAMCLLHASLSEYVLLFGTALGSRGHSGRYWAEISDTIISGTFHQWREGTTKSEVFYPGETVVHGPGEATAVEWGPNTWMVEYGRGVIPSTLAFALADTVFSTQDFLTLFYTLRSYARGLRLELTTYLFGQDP
Translocator protein, sequence (P30536 whole entry): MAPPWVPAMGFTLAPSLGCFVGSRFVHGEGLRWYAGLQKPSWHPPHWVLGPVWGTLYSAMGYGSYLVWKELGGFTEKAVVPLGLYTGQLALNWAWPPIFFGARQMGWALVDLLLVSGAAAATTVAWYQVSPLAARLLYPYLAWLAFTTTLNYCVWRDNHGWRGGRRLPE
Beta-3 adrenergic receptor, sequence (P13945 whole entry): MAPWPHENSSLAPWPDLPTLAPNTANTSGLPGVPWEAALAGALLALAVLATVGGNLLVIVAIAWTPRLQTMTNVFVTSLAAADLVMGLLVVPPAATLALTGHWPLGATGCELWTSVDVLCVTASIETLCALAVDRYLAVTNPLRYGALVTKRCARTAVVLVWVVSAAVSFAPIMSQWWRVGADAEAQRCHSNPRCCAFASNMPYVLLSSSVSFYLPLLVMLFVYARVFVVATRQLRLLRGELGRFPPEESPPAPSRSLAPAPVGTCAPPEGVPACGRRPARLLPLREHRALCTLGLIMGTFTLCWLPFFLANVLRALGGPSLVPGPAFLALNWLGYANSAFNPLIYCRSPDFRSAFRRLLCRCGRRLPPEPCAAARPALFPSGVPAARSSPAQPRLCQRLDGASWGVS
D(3) dopamine receptor, sequence (P35462 whole entry): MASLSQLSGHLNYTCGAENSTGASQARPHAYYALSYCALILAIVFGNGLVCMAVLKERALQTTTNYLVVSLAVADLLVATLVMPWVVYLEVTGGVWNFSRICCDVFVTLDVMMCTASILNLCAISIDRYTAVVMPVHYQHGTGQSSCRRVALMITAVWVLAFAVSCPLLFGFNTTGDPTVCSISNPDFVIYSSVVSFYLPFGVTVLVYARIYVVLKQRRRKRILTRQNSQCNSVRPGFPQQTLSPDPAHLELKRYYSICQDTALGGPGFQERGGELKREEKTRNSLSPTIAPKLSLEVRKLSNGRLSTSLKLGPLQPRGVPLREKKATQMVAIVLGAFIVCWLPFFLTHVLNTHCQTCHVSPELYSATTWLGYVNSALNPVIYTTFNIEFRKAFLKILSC
Sodium-dependent serotonin transporter, sequence (P31645 whole entry): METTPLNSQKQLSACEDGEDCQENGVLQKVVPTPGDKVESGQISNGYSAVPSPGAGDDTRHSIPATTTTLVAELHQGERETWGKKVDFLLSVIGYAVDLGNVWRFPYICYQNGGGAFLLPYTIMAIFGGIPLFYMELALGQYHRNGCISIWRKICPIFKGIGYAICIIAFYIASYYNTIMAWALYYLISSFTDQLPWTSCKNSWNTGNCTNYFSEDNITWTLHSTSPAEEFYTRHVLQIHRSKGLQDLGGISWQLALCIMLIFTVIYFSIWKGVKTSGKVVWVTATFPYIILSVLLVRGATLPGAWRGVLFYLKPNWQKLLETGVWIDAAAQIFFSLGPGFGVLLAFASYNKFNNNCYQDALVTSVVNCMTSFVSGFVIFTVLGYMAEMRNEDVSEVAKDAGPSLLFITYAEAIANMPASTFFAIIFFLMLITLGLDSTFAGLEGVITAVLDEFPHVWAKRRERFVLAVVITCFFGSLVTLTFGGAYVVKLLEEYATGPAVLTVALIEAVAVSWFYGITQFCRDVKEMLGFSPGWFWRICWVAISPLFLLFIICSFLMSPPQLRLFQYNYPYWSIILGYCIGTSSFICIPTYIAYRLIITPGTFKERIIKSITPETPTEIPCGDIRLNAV
Kappa-type opioid receptor, sequence (P41145 whole entry): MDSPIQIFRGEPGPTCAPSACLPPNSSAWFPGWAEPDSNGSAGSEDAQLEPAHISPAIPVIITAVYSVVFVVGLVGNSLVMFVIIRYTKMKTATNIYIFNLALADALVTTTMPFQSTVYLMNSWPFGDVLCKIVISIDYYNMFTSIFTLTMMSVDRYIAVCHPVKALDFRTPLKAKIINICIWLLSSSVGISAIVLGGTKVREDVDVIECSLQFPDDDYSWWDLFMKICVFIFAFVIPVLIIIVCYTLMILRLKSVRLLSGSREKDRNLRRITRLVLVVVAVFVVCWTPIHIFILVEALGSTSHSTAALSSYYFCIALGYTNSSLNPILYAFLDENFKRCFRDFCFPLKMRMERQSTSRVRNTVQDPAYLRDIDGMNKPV
D(1B) dopamine receptor, sequence (P21918 whole entry): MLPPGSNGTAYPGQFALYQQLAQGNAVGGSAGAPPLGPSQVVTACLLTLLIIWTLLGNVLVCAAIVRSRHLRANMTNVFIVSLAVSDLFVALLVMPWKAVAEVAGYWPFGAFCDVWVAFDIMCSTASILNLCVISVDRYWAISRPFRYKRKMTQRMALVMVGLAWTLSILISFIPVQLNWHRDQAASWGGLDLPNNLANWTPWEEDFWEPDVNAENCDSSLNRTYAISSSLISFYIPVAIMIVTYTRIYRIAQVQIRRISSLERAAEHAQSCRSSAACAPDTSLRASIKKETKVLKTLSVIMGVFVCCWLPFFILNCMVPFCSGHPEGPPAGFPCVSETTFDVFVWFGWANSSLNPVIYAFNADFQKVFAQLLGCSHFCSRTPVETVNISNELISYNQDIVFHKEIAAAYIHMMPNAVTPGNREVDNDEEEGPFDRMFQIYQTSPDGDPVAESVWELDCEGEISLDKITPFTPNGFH

O=C(O)c1cc(-c2ccc(C3CCNC3)cc2)c2ccc(-c3ccc(C(F)(F)F)cc3)cc2c1 (racemic)
Ki [1]: > 1000 nM | logD ([2]; read-out: logD): 1.9 | Ki [3]: 1200 nM

O=C(O)c1cc(-c2ccc([C@H]3C[C@H]4C[C@@H]3CN4)cc2)c2ccc(-c3ccc(C(F)(F)F)cc3)cc2c1 [listing 1 of 2 here]
t1/2 [4]: 4.05 h | PPB [5]: 99.79% | Stability [6]: 100% | Activity [7]: Non-Toxic | solubility [8]: 1.22 µg/mL (≈ 2.5 µM) | PPB [9]: 87.98% | half-life [10]: 7.24 h | t1/2 [11]: 4.67 h | Stability [12]: 100% | Stability [13]: 99.1% | half-life [14]: 8.94 h | logD [2]: 1.9 | t1/2 [15]: 1.52 h | Ki [3]: 710 nM | PPB [16]: 99.76% | IC50 [17]: 11000 nM | Stability [18]: 82.8%

CN(C)C(=O)COC(=O)c1cc(-c2ccc([C@@H]3C[C@@H]4C[C@H]3NC4=O)cc2)c2ccc(-c3ccc(C(F)(F)F)cc3)cc2c1
PPB [9]: 99.79% | Ki [19]: 6900 nM | half-life [20]: > 72 h | Fu [21]: 0% | Fu [22]: 0%

O=C(O)c1cc(-c2ccc([C@@H]3C[C@@H]4C[C@H]3CN4)cc2)c2ccc(-c3ccc(C(F)(F)F)cc3)cc2c1
Ki [23]: > 1000 nM | IC50 [24]: 13.4 nM | Ki [19]: 2100 nM | Ki [25]: > 1000 nM | Ki [26]: 1800 nM | Ki [3]: 1200 nM | Ki [27]: 1000 nM

N[C@H]1C[C@@H](CO)[C@H](c2ccc(-c3cc(C(=O)O)cc4cc(-c5ccc(C(F)(F)F)cc5)ccc34)cc2)C1
Ki [23]: > 1000 nM | Ki [19]: 1300 nM | logD ([2]; read-out: logD): 0.96 | Ki [26]: 1800 nM | Ki [3]: 1100 nM | Ki [27]: 330 nM

O=C(O)c1cc(-c2ccc([C@H]3C[C@H]4C[C@@H]3CN4)cc2)c2ccc(-c3ccc(C(F)(F)F)cc3)cc2c1 [listing 2 of 2 here]
Activity [28]: Active | Activity [29]: inactive | Activity [30]: inactive | Activity [31]: Active | Activity [32]: Active | Activity [33]: Active

CN(C)C(=O)COC(=O)c1cc(-c2ccc([C@H]3C[C@H]4C[C@@H]3CN4)cc2)c2ccc(-c3ccc(C(F)(F)F)cc3)cc2c1
Ki [34]: > 1000 nM | PPB [9]: 99.7% | half-life [20]: > 72 h | Ki [35]: > 1000 nM | Fu [21]: 0% | Drug metabolism [36]: 59% | Ki [3]: 390 nM | Fu [22]: 0.72%

O=C(O)c1cc(-c2ccc([C@@H]3C[C@@H]4C[C@H]3NC4=O)cc2)c2ccc(-c3ccc(C(F)(F)F)cc3)cc2c1
t1/2 [4]: > 16.67 h | PPB [5]: 96.18% | Stability [6]: 74.1% | PPB [9]: 98.89% | half-life [10]: 2.11 h | t1/2 [11]: 12.5 h | Stability [12]: 59.3% | Stability [13]: 100% | half-life [14]: 4.59 h | Activity [37]: Active | t1/2 [15]: 1.49 h | Ki [3]: 2100 nM | PPB [16]: 99.74% | IC50 [17]: 9340 nM | Stability [18]: 74.7%

CCOC(=O)N1C[C@H]2C[C@@H]1C[C@@H]2c1ccc(-c2cc(C(=O)OCC(=O)N(C)C)cc3cc(-c4ccc(C(F)(F)F)cc4)ccc23)cc1
Activity [38]: Active | half-life [20]: > 72 h | logD ([2]; read-out: logD): 6 | Drug metabolism [36]: 3% | Activity [39]: Active | Activity [40]: Active
